In patent US20240279220A1, “INDOLE COMPOUNDS AND METHODS OF USE” (Genzyme Corporation, priority 2021, published 2024):

Experiments:
[1] = system: NBD1/3D; assay: Aggregation analysis using differential static light scattering (DSLS), NBD1 thermal stability; assay type: binding, Human; conditions: ΔTagg versus DMSO control; compound at 100 μM
In short: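 Purified NBD1 at 0.2 mg/ml in S200 buffer (pH 7.6, 2 mM ATP, 5 mM MgCl2, 1% glycerol) was heated with compound at 1 °C/min to 70 °C. Tagg taken from the light-scattering curve inflection point; ΔTagg = compound Tagg minus mean DMSO control Tagg.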

[2] = molecular target: T1, CFTR (Homo sapiens, UniProt P13569, DEL508-508); assay: TECC24 recording of CFTR-mediated transepithelial chloride transport in ΔF508 homozygous CF-HBE cells; assay type: cell-based; conditions: 10 μM test agent, 48 hours incubation, AUC of forskolin-stimulated IEQ divided by vehicle AUC, primary CF-HBE cells
T1 construct: Primary human bronchial epithelial cells from a ΔF508 homozygous CF donor; host or cells: primary human bronchial epithelial cells (CF-HBE), ΔF508 homozygous donor
T1 sequence (P13569 with tags, fused parts or gaps DEL508-508): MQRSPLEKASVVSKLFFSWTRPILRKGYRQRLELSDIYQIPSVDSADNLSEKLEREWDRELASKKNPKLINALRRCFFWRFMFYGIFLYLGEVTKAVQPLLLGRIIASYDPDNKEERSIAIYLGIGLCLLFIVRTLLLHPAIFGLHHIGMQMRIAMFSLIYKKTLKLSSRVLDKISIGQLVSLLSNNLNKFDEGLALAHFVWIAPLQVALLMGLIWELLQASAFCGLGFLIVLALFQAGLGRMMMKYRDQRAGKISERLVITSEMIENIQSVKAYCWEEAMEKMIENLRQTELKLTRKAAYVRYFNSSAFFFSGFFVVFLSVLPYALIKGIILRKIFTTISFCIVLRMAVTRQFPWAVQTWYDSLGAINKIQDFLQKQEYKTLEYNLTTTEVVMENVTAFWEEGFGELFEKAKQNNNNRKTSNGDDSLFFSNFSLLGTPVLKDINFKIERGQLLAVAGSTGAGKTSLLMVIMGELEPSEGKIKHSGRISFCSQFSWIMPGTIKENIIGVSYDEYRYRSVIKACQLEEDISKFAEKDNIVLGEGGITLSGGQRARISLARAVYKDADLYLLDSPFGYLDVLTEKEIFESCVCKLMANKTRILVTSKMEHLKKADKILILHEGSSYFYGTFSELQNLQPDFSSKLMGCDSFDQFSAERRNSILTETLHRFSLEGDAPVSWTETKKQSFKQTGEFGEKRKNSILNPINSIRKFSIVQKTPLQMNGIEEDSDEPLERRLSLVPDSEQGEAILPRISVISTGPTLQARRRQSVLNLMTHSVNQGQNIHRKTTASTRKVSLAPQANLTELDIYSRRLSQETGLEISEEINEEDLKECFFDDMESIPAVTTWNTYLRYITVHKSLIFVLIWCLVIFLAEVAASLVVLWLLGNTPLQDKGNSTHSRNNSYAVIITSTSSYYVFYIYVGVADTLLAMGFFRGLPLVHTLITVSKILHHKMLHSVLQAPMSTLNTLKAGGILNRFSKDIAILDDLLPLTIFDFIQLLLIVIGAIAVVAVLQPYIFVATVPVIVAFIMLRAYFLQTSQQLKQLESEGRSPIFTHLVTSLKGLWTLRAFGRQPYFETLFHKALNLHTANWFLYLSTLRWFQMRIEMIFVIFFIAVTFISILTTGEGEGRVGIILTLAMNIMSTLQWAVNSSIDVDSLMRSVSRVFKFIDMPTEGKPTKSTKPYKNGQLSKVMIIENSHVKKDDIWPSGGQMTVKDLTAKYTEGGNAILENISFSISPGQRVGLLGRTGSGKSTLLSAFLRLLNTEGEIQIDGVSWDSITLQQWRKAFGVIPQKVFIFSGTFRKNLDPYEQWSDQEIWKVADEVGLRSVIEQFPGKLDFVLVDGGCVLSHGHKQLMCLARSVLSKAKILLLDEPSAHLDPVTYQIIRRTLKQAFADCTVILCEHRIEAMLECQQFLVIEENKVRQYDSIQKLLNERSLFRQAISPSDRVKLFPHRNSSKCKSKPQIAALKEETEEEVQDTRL
Procedure: The effects of a test agent on CFTR-mediated transepithelial chloride transport was measured using TECC24 recording analysis. Test agents were solubilized in DMSO. Solubilized test agents were mixed with incubation medium containing DMEM/F12, Ultroser G (2%; Crescent Chemical, catalog #67042), Hyclone Fetal Clone II (2%; GE Healthcare, catalog #SH30066.02), bovine brain extract (0.25%; Lonza, catalog #CC-4098), insulin (2.5 μg/mL), IL-13 (10 ng/mL), hydrocortisone (20 nM), transferrin (2.5 μg/mL), triiodothyronine (500 nM), ethanolamine (250 nM), epinephrine (1.5 μM), phosphoethanolamine (250 nM), and retinoic acid (10 nM). Primary human bronchial epithelial cells from a ΔF508 homozygous CF donor (CF-HBE cells; from University of North Carolina Cystic Fibrosis Tissue Procurement Center), grown on Transwell HTS 24-well cell culture inserts (Costar, catalog #3378), were exposed to test agents or controls dissolved in incubation medium. The CF-HBE cells were cultured at 36.5° C. for 48 hours before TECC24 recordings were performed in the presence or absence of test agent, a positive control or vehicle (DMSO).
Following incubation, the transwell cell culture inserts containing the test agent or control-treated CF-HBE cells were loaded onto a TECC24 apparatus (TECC v7 or MTECC v2; EP Design) to record the transepithelial voltage (VT) and resistance (TEER) using 4 AgCl electrodes per well configured in current-clamp mode. The apical and basolateral bath solutions both contained (in mM) 140 NaCl, 5 KCl, 2 CaCl2, 1 MgCl2, 10 Hepes, and 10 glucose (adjusted to pH 7.4 with NaOH). To inhibit basal Na+ absorption, the ENaC inhibitor benzamil (10 μM) was added to the bath. Then, the adenylate cyclase activator, forskolin (10 μM), was added to the bath to activate CFTR. The forskolin-stimulated Cl— transport was halted by addition of CFTR inhibitor-172 (20 μM) to the bath at the end of the experiment to confirm specificity. VT and TEER recordings were digitally acquired at routine intervals using TECC or MTECC software (EP Design). VT and TEER were transformed into equivalent transpeithelial Cl— current (IEQ), and the Area Under the Curve (AUC) of the IEQ timecourse between forskolin and CFTR inhibitor-172 addition is generated using Excel (Microsoft). Efficacy is expressed as the ratio of the test agent AUC divided by vehicle AUC. EC50s based on AUC are generated using the non-linear regression log(agonist) vs. response function in Prism software (Graphpad) with HillSlope fixed=1.
If a test agent increased the AUC of the forskolin-stimulated IEQ relative to vehicle in CF-HBE cells, and this increase was inhibited by CFTR inhibitor-172, then the test agent was considered a CFTR corrector.

Compound | DSLS NBD1/3D Human Stability delta-T (° C.) @ 100 (μM) [1] | TECC24 @ 10 μM over DMSO (AUC fold over DMSO) [2]
CC(c1cnc(-c2cc(Oc3c(F)cc4[nH]ccc4c3CC(F)(F)F)ccc2F)[nH]1)c1cccc(CCC(=O)O)c1F (single isomer, unassigned) [Example 128B, 3-(2-fluoro-3-(1-(2-(2-fluoro-5-((6-fluoro-4-(2,2,2-trifluoroethyl)-1H-indol-5-yl)oxy)phenyl)-1H-imidazol-5-yl)ethyl)phenyl)propanoic acid] | A (A: T ≥ 10° C.) | A (“A” refers to AUC @10 uM >= 12)
CC(c1c[nH]c(-c2cc(Oc3c(F)cc4[nH]ccc4c3CC(F)F)ccc2F)n1)c1cccc(CCC(=O)O)c1F (single isomer, unassigned) [Example 129A, 3-(3-(1-(2-(5-((4-(2,2-difluoroethyl)-6-fluoro-1H-indol-5-yl)oxy)-2-fluorophenyl)-1H-imidazol-4-yl)ethyl)-2-fluorophenyl)propanoic acid] | A (A: T ≥ 10° C.) | A (“A” refers to AUC @10 uM >= 12)
CC(C)OCCOCCC(c1cnc(-c2cc(Oc3c(F)cc4[nH]ccc4c3F)ccc2F)[nH]1)c1cccc(CCC(=O)O)c1F (single isomer, unassigned) [Example 130B, 3-(3-(1-(2-(5-((4,6-difluoro-1H-indol-5-yl)oxy)-2-fluorophenyl)-1H-imidazol-5-yl)-3-(2-isopropoxyethoxy)propyl)-2-fluorophenyl)propanoic acid] | A (A: T ≥ 10° C.) | A (“A” refers to AUC @10 uM >= 12)
CC(c1cnc(-c2cc(Oc3c(F)cc4[nH]ccc4c3F)ccc2F)[nH]1)c1cccc(CC(=O)O)c1F (single isomer, unassigned) [Example 131A, 2-(3-(1-(2-(5-((4,6-difluoro-1H-indol-5-yl)oxy)-2-fluorophenyl)-1H-imidazol-5-yl)ethyl)-2-fluorophenyl)acetic acid] | A (A: T ≥ 10° C.) | A (“A” refers to AUC @10 uM >= 12)
CC(c1cnc(-c2cc(Oc3c(F)cc4[nH]ccc4c3F)ccc2F)[nH]1)c1cc(F)cc(CCC(=O)O)c1F (single isomer, unassigned) [Example 132B, 3-(3-(1-(2-(5-((4,6-difluoro-1H-indol-5-yl)oxy)-2-fluorophenyl)-1H-imidazol-5-yl)ethyl)-2,5-difluorophenyl)propanoic acid] | A (A: T ≥ 10° C.) | A (“A” refers to AUC @10 uM >= 12)
CC(c1cnc(-c2cc(Oc3c(F)cc4[nH]ccc4c3CP(C)(C)=O)ccc2F)[nH]1)c1cccc(CCC(=O)O)c1F (single isomer, unassigned) [Example 133B, 3-(3-(1-(2-(5-((4-((dimethylphosphoryl)methyl)-6-fluoro-1H-indol-5-yl)oxy)-2-fluorophenyl)-1H-imidazol-5-yl)ethyl)-2-fluorophenyl)propanoic acid] | A (A: T ≥ 10° C.) | C (“C” refers to AUC @ 10 uM <= 4)
CC(c1cnc(-c2cc(Oc3c(F)cc4[nH]ccc4c3CN3CCCS3(=O)=O)ccc2F)[nH]1)c1cccc(CCC(=O)O)c1F (single isomer, unassigned) [Example 134B, 3-(3-(1-(2-(5-((4-((1,1-dioxidoisothiazolidin-2-yl)methyl)-6-fluoro-1H-indol-5-yl)oxy)-2-fluorophenyl)-1H-imidazol-5-yl)ethyl)-2-fluorophenyl)propanoic acid] | A (A: T ≥ 10° C.) | A (“A” refers to AUC @10 uM >= 12)
CC(c1cnc(-c2cc(Oc3c(F)cc4[nH]ccc4c3CCP(C)(C)=O)ccc2F)[nH]1)c1cccc(CCC(=O)O)c1F (single isomer, unassigned) [Example 135A, 3-(3-(1-(2-(5-((4-(2-(dimethylphosphoryl)ethyl)-6-fluoro-1H-indol-5-yl)oxy)-2-fluorophenyl)-1H-imidazol-5-yl)ethyl)-2-fluorophenyl)propanoic acid] | A (A: T ≥ 10° C.) | C (“C” refers to AUC @ 10 uM <= 4)
CC(c1c[nH]c(-c2cc(Oc3c(F)cc4[nH]ccc4c3S(C)(=N)=O)ccc2F)n1)c1cccc(CCC(=O)O)c1F (single isomer, unassigned) [Example 136C, 3-(2-fluoro-3-(1-(2-(2-fluoro-5-((6-fluoro-4-(S-methylsulfonimidoyl)-1H-indol-5-yl)oxy)phenyl)-1H-imidazol-4-yl)ethyl)phenyl)propanoic acid] | A (A: T ≥ 10° C.) | A (“A” refers to AUC @10 uM >= 12)
CC(Cc1cccc(C(C)c2cnc(-c3cc(Oc4c(F)cc5[nH]ccc5c4F)ccc3F)[nH]2)c1F)C(=O)O (single isomer, unassigned) [Example 137D, 3-(3-(1-(2-(5-((4,6-difluoro-1H-indol-5-yl)oxy)-2-fluorophenyl)-1H-imidazol-5-yl)ethyl)-2-fluorophenyl)-2-methylpropanoic acid] | A (A: T ≥ 10° C.) | A (“A” refers to AUC @10 uM >= 12)
Cc1c(Oc2ccc(F)c(-c3ncc([C@H](C)c4cccc([C@@H]5C[C@H]5C(=O)O)c4F)[nH]3)c2)c(F)cc2[nH]ccc12 (single isomer, unassigned) [Example 139F, trans-2-(2-fluoro-3-(1-(2-(2-fluoro-5-((6-fluoro-4-methyl-1H-indol-5-yl)oxy)phenyl)-1H-imidazol-5-yl)ethyl)phenyl)cyclopropane-1-carboxylic acid] | A (A: T ≥ 10° C.) | B (“B” refers to AUC @10 uM between 4-12)
Cc1nc(-c2cc(Oc3c(F)cc4[nH]ccc4c3F)ccc2F)[nH]c1C(O)c1cccc(CCC(=O)O)c1F (single isomer, unassigned) [Example 180, 3-(3-((2-(5-((4,6-difluoro-1H-indol-5-yl)oxy)-2-fluorophenyl)-4-methyl-1H-imidazol-5-yl)(hydroxy)methyl)-2-fluorophenyl)propanoic acid] | A (A: T ≥ 10° C.) | A (“A” refers to AUC @10 uM >= 12)
CC(c1nnc(-c2cc(Oc3c(F)cc4[nH]ccc4c3F)ccc2F)[nH]1)c1cccc(CCC(=O)O)c1F (single isomer, unassigned) [Example 252A, 3-(3-(1-(5-(5-((4,6-difluoro-1H-indol-5-yl)oxy)-2-fluorophenyl)-4H-1,2,4-triazol-3-yl)ethyl)-2-fluorophenyl)propanoic acid] | B (B: 5-10° C.) | A (“A” refers to AUC @10 uM >= 12)
CC(c1cn(C)c(-c2cc(Oc3c(F)cc4[nH]ccc4c3F)ccc2F)n1)c1cccc(CCC(=O)O)c1F (single isomer, unassigned) [Example 278B, 3-(3-(1-(2-(5-((4,6-difluoro-1H-indol-5-yl)oxy)-2-fluorophenyl)-1-methyl-1H-imidazol-4-yl)ethyl)-2-fluorophenyl)propanoic acid] | B (B: 5-10° C.) | A (“A” refers to AUC @10 uM >= 12)
CS(=O)(=O)c1c(Oc2cccc(-c3ccn(Cc4cccc(CCC(=O)O)c4)n3)c2)ccc2[nH]ccc12 [Example 40] | A (A: T ≥ 10° C.) | A (“A” refers to AUC @10 uM >= 12)
